Data from PubChem BioAssay AID1259407 (Chemical Carcinogenesis Research Information System (CCRIS), 2018).
Activity calls are given as the source filed them. The rule behind the calls is not given here.

Tested on: CCRIS mutagenicity, Ames/micronucleus/aberration tests
Assay: CCRIS mutagenicity studies
[1] = Test System: AMES SALMONELLA TYPHIMURIUM, Strain/Indicator: TA98, Metabolic Activation: NONE, Method: PREINCUBATION
[2] = Test System: AMES SALMONELLA TYPHIMURIUM, Strain/Indicator: TA100, Metabolic Activation: NONE, Method: PREINCUBATION
[3] = Test System: AMES SALMONELLA TYPHIMURIUM, Strain/Indicator: TA100, Metabolic Activation: NONE, Method: STANDARD PLATE
[4] = Test System: AMES SALMONELLA TYPHIMURIUM, Strain/Indicator: TA98, Metabolic Activation: NONE, Method: STANDARD PLATE
[5] = Test System: AMES SALMONELLA TYPHIMURIUM, Strain/Indicator: TA97, Metabolic Activation: NONE, Method: PREINCUBATION
[6] = Test System: AMES SALMONELLA TYPHIMURIUM, Strain/Indicator: TA1535, Metabolic Activation: NONE, Method: PREINCUBATION

O=S(=O)(O)c1ccc2cc(O)c(S(=O)(=O)O)cc2c1
mutagenic call [1]: inactive; negative
mutagenic call (Test System: AMES SALMONELLA TYPHIMURIUM, Strain/Indicator: TA98, Metabolic Activation: RAT, LIVER, S-9, PHENOBARBITAL, Method: PREINCUBATION): inactive; negative
mutagenic call [2]: inactive; negative
mutagenic call (Test System: AMES SALMONELLA TYPHIMURIUM, Strain/Indicator: TA100, Metabolic Activation: RAT, LIVER, S-9, PHENOBARBITAL, Method: PREINCUBATION): inactive; negative

COc1cc(CNC(=O)C(C)Br)ccc1O (stereo unspecified)
mutagenic call [3]: active; positive

CN1CCN(c2ccc3nc(-c4ccc5nc(-c6ccc(N(CCCl)CCCl)cc6)[nH]c5c4)[nH]c3c2)CC1
mutagenic call [4]: inactive; negative
mutagenic call [3]: inactive; negative
mutagenic call (Test System: AMES SALMONELLA TYPHIMURIUM, Strain/Indicator: TA102, Metabolic Activation: NONE, Method: STANDARD PLATE): inactive; negative

Nc1cc(S(=O)(=O)O)ccc1O
mutagenic call (Test System: AMES SALMONELLA TYPHIMURIUM, Strain/Indicator: TA97, Metabolic Activation: HAMSTER, LIVER, S-9, AROCLOR 1254 (10 OR 30%), Method: PREINCUBATION): inactive; negative
mutagenic call [5]: inactive; negative
mutagenic call (Test System: AMES SALMONELLA TYPHIMURIUM, Strain/Indicator: TA97, Metabolic Activation: RAT, LIVER, S-9, AROCLOR 1254 (10 OR 30%), Method: PREINCUBATION): inactive; negative
mutagenic call (Test System: AMES SALMONELLA TYPHIMURIUM, Strain/Indicator: TA98, Metabolic Activation: HAMSTER, LIVER, S-9, AROCLOR 1254 (10 OR 30%), Method: PREINCUBATION): inactive; negative
mutagenic call [1]: inactive; negative
mutagenic call (Test System: AMES SALMONELLA TYPHIMURIUM, Strain/Indicator: TA98, Metabolic Activation: RAT, LIVER, S-9, AROCLOR 1254 (10 OR 30%), Method: PREINCUBATION): inactive; negative
mutagenic call (Test System: AMES SALMONELLA TYPHIMURIUM, Strain/Indicator: TA100, Metabolic Activation: HAMSTER, LIVER, S-9, AROCLOR 1254 (10 OR 30%), Method: PREINCUBATION): inactive; negative
mutagenic call [2]: inactive; negative
mutagenic call (Test System: AMES SALMONELLA TYPHIMURIUM, Strain/Indicator: TA100, Metabolic Activation: RAT, LIVER, S-9 AROCLOR 1254 (10 OR 30%), Method: PREINCUBATION): inactive; negative
mutagenic call (Test System: AMES SALMONELLA TYPHIMURIUM, Strain/Indicator: TA1535, Metabolic Activation: HAMSTER, LIVER, S-9, AROCLOR 1254 (10 OR 30%), Method: PREINCUBATION): inactive; negative
mutagenic call [6]: inactive; negative
mutagenic call (Test System: AMES SALMONELLA TYPHIMURIUM, Strain/Indicator: TA1535, Metabolic Activation: RAT, LIVER, S-9, AROCLOR 1254 (10 OR 30%), Method: PREINCUBATION): inactive; negative

Cc1ccc(N(CCO)CCO)cc1
mutagenic call (Test System: AMES SALMONELLA TYPHIMURIUM, Strain/Indicator: TA1535, Metabolic Activation: RAT, LIVER, S-9, AROCLOR 1254 (2.5%), Method: PREINCUBATION): active; positive
mutagenic call (Test System: Mouse lymphoma, Strain/Indicator: L5178Y (tk+/tk-), Metabolic Activation: None, Method: Suspension/plate): inactive; negative
mutagenic call (Test System: Mouse lymphoma, Strain/Indicator: L5178Y (tk+/tk-), Metabolic Activation: Rat, Liver, S-9, Aroclor 1254, Method: Suspension/plate): inconclusive (previous evaluation equivocal)

Cl
mutagenic call (End Point: IN VITRO CHROMOSOMAL ABERRATIONS, Test System: CHO-WBL CELLS, Metabolic Activation: NONE): active; positive (structural changes); osmolality of solution decisive factor
mutagenic call [5]: inactive; negative
mutagenic call (Test System: AMES SALMONELLA TYPHIMURIUM, Strain/Indicator: TA97, Metabolic Activation: NONE, Method: STANDARD PLATE): inactive; negative
mutagenic call (Test System: AMES SALMONELLA TYPHIMURIUM, Strain/Indicator: TA97, Metabolic Activation: RAT, LIVER, S-9, AROCLOR 1254, Method: PREINCUBATION): inactive; negative
mutagenic call (Test System: AMES SALMONELLA TYPHIMURIUM, Strain/Indicator: TA97, Metabolic Activation: RAT, LIVER, S-9, PHENOBARBITAL, Method: STANDARD PLATE): inactive; negative
mutagenic call [1]: inactive; negative
mutagenic call [4]: inactive; negative
mutagenic call (Test System: AMES SALMONELLA TYPHIMURIUM, Strain/Indicator: TA98, Metabolic Activation: RAT, LIVER, S-9, KC 500, Method: PREINCUBATION): inactive; negative
mutagenic call (Test System: AMES SALMONELLA TYPHIMURIUM, Strain/Indicator: TA98, Metabolic Activation: RAT, LIVER, S-9, PHENOBARBITAL, Method: STANDARD PLATE): inactive; negative
mutagenic call [2]: inactive; negative
mutagenic call [3]: inactive; negative
mutagenic call (Test System: AMES SALMONELLA TYPHIMURIUM, Strain/Indicator: TA100, Metabolic Activation: RAT, LIVER, S-9, KC 500, Method: PREINCUBATION): inactive; negative
mutagenic call (Test System: AMES SALMONELLA TYPHIMURIUM, Strain/Indicator: TA100, Metabolic Activation: RAT, LIVER, S-9, PHENOBARBITAL, Method: STANDARD PLATE): inactive; negative
mutagenic call (Test System: AMES SALMONELLA TYPHIMURIUM, Strain/Indicator: TA102, Metabolic Activation: NONE, Method: PREINCUBATION): inactive; negative
mutagenic call (Test System: AMES SALMONELLA TYPHIMURIUM, Strain/Indicator: TA102, Metabolic Activation: RAT, LIVER, S-9, AROCLOR 1254, Method: PREINCUBATION): inactive; negative
mutagenic call [6]: inactive; negative
mutagenic call (Test System: AMES SALMONELLA TYPHIMURIUM, Strain/Indicator: TA1535, Metabolic Activation: NONE, Method: STANDARD PLATE): inactive; negative
mutagenic call (Test System: AMES SALMONELLA TYPHIMURIUM, Strain/Indicator: TA1535, Metabolic Activation: RAT, LIVER, S-9, KC 500, Method: PREINCUBATION): inactive; negative
mutagenic call (Test System: AMES SALMONELLA TYPHIMURIUM, Strain/Indicator: TA1535, Metabolic Activation: RAT, LIVER, S-9, PHENOBARBITAL, Method: STANDARD PLATE): inactive; negative
mutagenic call (Test System: AMES SALMONELLA TYPHIMURIUM, Strain/Indicator: TA1537, Metabolic Activation: NONE, Method: PREINCUBATION): inactive; negative
mutagenic call (Test System: AMES SALMONELLA TYPHIMURIUM, Strain/Indicator: TA1537, Metabolic Activation: NONE, Method: STANDARD PLATE): inactive; negative
mutagenic call (Test System: AMES SALMONELLA TYPHIMURIUM, Strain/Indicator: TA1537, Metabolic Activation: RAT, LIVER, S-9, KC 500, Method: PREINCUBATION): inactive; negative
mutagenic call (Test System: AMES SALMONELLA TYPHIMURIUM, Strain/Indicator: TA1537, Metabolic Activation: RAT, LIVER, S-9, PHENOBARBITAL, Method: STANDARD PLATE): inactive; negative
mutagenic call (Test System: AMES SALMONELLA TYPHIMURIUM, Strain/Indicator: TA1538, Metabolic Activation: NONE, Method: PREINCUBATION): inactive; negative
mutagenic call (Test System: AMES SALMONELLA TYPHIMURIUM, Strain/Indicator: TA1538, Metabolic Activation: NONE, Method: STANDARD PLATE): inactive; negative
mutagenic call (Test System: AMES SALMONELLA TYPHIMURIUM, Strain/Indicator: TA1538, Metabolic Activation: RAT, LIVER, S-9, KC 500, Method: PREINCUBATION): inactive; negative
mutagenic call (Test System: AMES SALMONELLA TYPHIMURIUM, Strain/Indicator: TA1538, Metabolic Activation: RAT, LIVER, S-9, PHENOBARBITAL, Method: STANDARD PLATE): inactive; negative
mutagenic call (Test System: E. COLI, Strain/Indicator: WP2 UVRA, Metabolic Activation: NONE, Method: PREINCUBATION): inactive; negative
mutagenic call (Test System: E. COLI, Strain/Indicator: WP2 UVRA, Metabolic Activation: NONE, Method: SPOT TEST): inactive; negative
mutagenic call (Test System: E. COLI, Strain/Indicator: WP2 UVRA, Metabolic Activation: RAT, LIVER, S-9, KC 500, Method: PREINCUBATION): inactive; negative
mutagenic call (Test System: MOUSE LYMPHOMA, Strain/Indicator: L5178Y (TK+/TK-), Metabolic Activation: NONE, Method: SUSPENSION/PLATE): inactive; negative
mutagenic call (Test System: MOUSE LYMPHOMA, Strain/Indicator: L5178Y (TK+/TK-), Metabolic Activation: RAT, LIVER, S-9, AROCLOR 1254, Method: SUSPENSION/PLATE): active; positive
mutagenic call (Test System: MOUSE LYMPHOMA, Strain/Indicator: L5178Y (TK+/TK-), Metabolic Activation: RAT, LIVER, S-9, Method: SUSPENSION/PLATE): active; positive
